Patent US10501449B2 (priority 2018, dated 2019)
Read-outs that look alike come from different tables or passages of the source.

What was measured:
hROMK (human Kir1.1) [1] = biological target: T1, hROMK (human Kir1.1) (Homo sapiens (Human), UniProt P48048); experiment: cell-based; format: cell-based; conditions: whole-cell manual patch clamp, CHO T-Rex hROMK stable cell line, voltage step to -120 mV, Ba2+-subtracted hROMK current; read-out: ROMK EP IC50
hERG channels = hERG channels (Homo sapiens (Human), UniProt Q12809); experiment: hERG Manual Patch Clamp Assay; format: cell-based; conditions: human, HEK 293 cells stably expressing hERG channels, pH 7.4, 1 uM, read-out: hERG EP % Inh @ 1 uM
Method: hERG electrophysiology assay: The experimental compounds were assessed for hERG activity on HEK 293 cells stably expressing hERG channels using patch clamp technique. Coverslips plated with hERG expressing cells were placed in the experimental chamber and were perfused with a solution composed of (in mM): 140 NaCl, 4 KCl, 1.8 CaCl2, 1 MgCl2, 10 Glucose, 10 HEPES (pH 7.4, NaOH) at room temperature. Borosilicate patch pipettes had tip resistances of 2-4 Mohms when filled with an internal solution containing: 130 KCl, 1 MgCl2, 1 CaCl2, 10 EGTA, 10 HEPES, 5 ATP-K2 (pH 7.2, KOH). The cells were clamped at −80 mV in whole cell configuration using an Axopatch 200B (Axon instruments, Union City, Calif.) patch clamp amplifier controlled by pClamp (Axon instruments) software. Upon formation of a gigaseal, the following voltage protocol was repeatedly (0.05 Hz) applied to record tail currents: depolarization step from −80 mV to +20 mV for 2 seconds followed by a hyperpolarization step to −65 mV (3 seconds) to elicit tail currents. Compounds were applied after stabilization of tail current. First, tail currents were recorded in presence of extracellular solution alone (control) and subsequently, in extracellular solution containing increasing compound concentrations. Each compound concentration was applied for 2-5 minutes. The percentage inhibition at each concentration was calculated as reduction in peak tail current with respect to the peak tail current recorded in the presence of control solution. Data analysis was performed in a custom made template. The percent inhibitions at different concentrations were plotted to obtain a concentration response curve, which was subsequently fitted with a four parameter equation to calculate hERG IC50 value.

hROMK (human Kir1.1) [2] = biological target: T1, hROMK (human Kir1.1); experiment: cell-based; conditions: CHO T-Rex hROMK stable cell line; thallium flux; 10-point concentration response curve; read-out: Human ROMK Th Flux IC50

T1 sequence (P48048 whole entry): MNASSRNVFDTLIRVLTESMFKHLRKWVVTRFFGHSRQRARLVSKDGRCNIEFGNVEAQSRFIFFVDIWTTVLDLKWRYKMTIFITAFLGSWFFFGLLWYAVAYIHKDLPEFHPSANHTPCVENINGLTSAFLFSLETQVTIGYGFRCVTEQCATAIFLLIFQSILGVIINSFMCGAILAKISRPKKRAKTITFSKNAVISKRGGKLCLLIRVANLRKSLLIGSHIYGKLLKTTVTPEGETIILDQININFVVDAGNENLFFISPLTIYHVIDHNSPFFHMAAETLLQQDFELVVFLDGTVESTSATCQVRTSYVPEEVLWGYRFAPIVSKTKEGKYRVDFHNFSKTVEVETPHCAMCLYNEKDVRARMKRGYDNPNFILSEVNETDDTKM
Sequence of hERG channels (Q12809 whole entry): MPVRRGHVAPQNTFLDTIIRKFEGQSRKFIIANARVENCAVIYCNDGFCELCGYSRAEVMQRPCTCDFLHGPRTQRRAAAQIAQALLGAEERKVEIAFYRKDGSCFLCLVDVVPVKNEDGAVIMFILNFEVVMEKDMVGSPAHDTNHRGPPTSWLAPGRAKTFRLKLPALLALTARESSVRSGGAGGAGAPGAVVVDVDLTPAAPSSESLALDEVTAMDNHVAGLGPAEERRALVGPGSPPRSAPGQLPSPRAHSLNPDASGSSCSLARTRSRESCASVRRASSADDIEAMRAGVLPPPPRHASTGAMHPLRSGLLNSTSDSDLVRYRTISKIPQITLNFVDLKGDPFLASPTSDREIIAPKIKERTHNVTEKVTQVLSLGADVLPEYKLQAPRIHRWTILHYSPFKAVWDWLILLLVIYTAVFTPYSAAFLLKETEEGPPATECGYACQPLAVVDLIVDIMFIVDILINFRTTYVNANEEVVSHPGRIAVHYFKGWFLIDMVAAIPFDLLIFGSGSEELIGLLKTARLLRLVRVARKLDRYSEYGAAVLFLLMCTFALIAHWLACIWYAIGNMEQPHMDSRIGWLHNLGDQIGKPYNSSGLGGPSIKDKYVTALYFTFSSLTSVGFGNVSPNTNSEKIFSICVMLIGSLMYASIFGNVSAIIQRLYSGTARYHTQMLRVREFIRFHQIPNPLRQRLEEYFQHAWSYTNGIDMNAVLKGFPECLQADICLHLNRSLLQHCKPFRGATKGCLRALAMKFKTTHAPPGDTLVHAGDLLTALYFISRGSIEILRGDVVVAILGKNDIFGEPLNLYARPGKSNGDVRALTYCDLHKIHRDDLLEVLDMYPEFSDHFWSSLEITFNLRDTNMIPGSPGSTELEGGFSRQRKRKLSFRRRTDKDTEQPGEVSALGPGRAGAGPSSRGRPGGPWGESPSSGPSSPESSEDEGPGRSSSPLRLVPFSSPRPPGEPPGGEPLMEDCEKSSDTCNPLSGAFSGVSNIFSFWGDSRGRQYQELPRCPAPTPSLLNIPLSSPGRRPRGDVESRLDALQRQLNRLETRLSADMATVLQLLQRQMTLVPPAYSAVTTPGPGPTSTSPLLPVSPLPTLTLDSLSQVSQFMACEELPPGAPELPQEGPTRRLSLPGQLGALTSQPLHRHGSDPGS

Structure (SMILES) | IC50 (hROMK (human Kir1.1) [1]) [nM] | inhibition at 1 µM (hERG channels) [%] | IC50 (hROMK (human Kir1.1) [2]) [nM]
Cc1cc(-n2ncc(C(C)N3CCN[C@H](c4ccc5c(c4C)COC5=O)C3)n2)ncc1C#N (single isomer, unassigned) [Example 121-I] | 740 | 10 | 31
Cc1cc(-n2nc(C)c(CN3CC(c4ccc5c(c4C)COC5=O)NC(C)(C)C3)n2)ncc1C#N (single isomer, unassigned) [Example 175-I, 6-(4-((3,3-dimethyl-5-(4-methyl-1-oxo-1,3-dihydroisobenzofuran-5-yl)piperazin-1-yl)methyl)-5-methyl-2H-1,2,3-triazol-2-yl)-4-methylnicotinonitrile] | 17 | 15 | 31
COc1cc(-n2ncc(CN3CC(c4ccc5c(c4C)COC5=O)NC(C)(C)C3)n2)ncc1C#N (single isomer, unassigned) [Example 190-I, 6-(4-((3,3-dimethyl-5-(4-methyl-1-oxo-1,3-dihydroisobenzofuran-5-yl)piperazin-1-yl)methyl)-2H-1,2,3-triazol-2-yl)-4-methoxynicotinonitrile] | 13 | 9.1 | 17
Cc1cc(-c2nnc(CN3CC(c4ccc5c(c4C)COC5=O)NC(C)(C)C3)o2)ncc1C#N (single isomer, unassigned) [Example 267-I, 6-(5-((3,3-dimethyl-5-(4-methyl-1-oxo-1,3-dihydroisobenzofuran-5-yl)piperazin-1-yl)methyl)-1,3,4-oxadiazol-2-yl)-4-methylnicotinonitrile] | 17 | 9.9 | 16
Cc1cc(-n2cc(CN3CCO[C@H](c4ccc5c(c4C)COC5=O)C3)cn2)ncc1C#N [Example 1-I, (R)-4-methyl-6-(4-((2-(4-methyl-1-oxo-1,3-dihydroisobenzofuran-5-yl)morpholino)methyl)-1H-pyrazol-1-yl)nicotinonitrile] | 11 | 26 | 14
Cc1c([C@@H]2CN(Cc3ccc(-c4ccc5oc(=O)n(C)c5c4)nc3)CCO2)ccc2c1COC2=O [Example 3-I, (R)-3-methyl-5-(5-((2-(4-methyl-1-oxo-1,3-dihydroisobenzofuran-5-yl)morpholino)methyl)pyridin-2-yl)benzo[d]oxazol-2(3H)-one] | 44 | 26 | 210
COc1cc(-n2cnc(CN3CCN[C@H](c4ccc5c(c4C)COC5=O)C3)c2)ncc1C#N [Example 14-I, (R)-4-methoxy-6-(4-((3-(4-methyl-1-oxo-1,3-dihydroisobenzofuran-5-yl)piperazin-1-yl)methyl)-1H-imidazol-1-yl)nicotinonitrile] | 51 | 1.7 | 36
Cc1cn(-c2ccc(CN3CCO[C@H](c4ccc5c(c4C)COC5=O)C3)cn2)cn1 [Example 16-I, (R)-4-methyl-5-(4-((6-(4-methyl-1H-imidazol-1-yl)pyridin-3-yl)methyl)morpholin-2-yl)isobenzofuran-1(3H)-one] | 11 | 7.3 | 33
Cc1cc(-n2cc(CN3CCN[C@H](c4ccc5c(c4C)COC5=O)C3)nn2)ncc1C#N [Example 23-I, (R)-4-methyl-6-(4-((3-(4-methyl-1-oxo-1,3-dihydroisobenzofuran-5-yl)piperazin-1-yl)methyl)-1H-1,2,3-triazol-1-yl)nicotinonitrile] | 4.9 | 12 | 30
COc1cc(-n2cc(CN3CCN[C@H](c4ccc5c(c4C)COC5=O)C3)cn2)ncc1C#N [Example 59-I, (R)-4-methoxy-6-(4-((3-(4-methyl-1-oxo-1,3-dihydroisobenzofuran-5-yl)piperazin-1-yl)methyl)-1H-pyrazol-1-yl) nicotinonitrile] | 4.8 | 15 | 20
Cc1c([C@@H]2CN(Cc3ccc(-n4cnc(C#N)c4)nc3)CCN2)ccc2c1COC2=O [Example 65-I, (R)-1-(5-((3-(4-methyl-1-oxo-1,3-dihydroiso-benzofuran-5-yl)piper-azin-1-yl)methyl)pyri-din-2-yl)-1H-imidazole-4-carbonitrile] | 9.8 | 21 | 14
Cc1cn(-c2ccc(CN3CCN[C@H](c4ccc5c(c4C)COC5=O)C3)cn2)cn1 [Example 66-I, (R)-4-methyl-5-(4-((6-(4-methyl-1H-imidazol-1-yl)pyridin-3-yl)methyl)piperazin-2-yl)iso-benzofuran-1(3H)-one] | 4.7 | 0 | 33
Cc1ncn(-c2ccc(CN3CCN[C@H](c4ccc5c(c4C)COC5=O)C3)cn2)n1 [Example 67-I, (R)-4-methyl-5-(4-((6-(3-methyl-1H-1,2,4-tri-azol-1-yl)pyridin-3-yl)methyl)piperazin-2-yl) isobenzofuran-1(3H)-one] | 29 | 7.1 | 110
Cc1ncn(-c2ncc(CN3C[C@@H](c4ccc5c(c4C)COC5=O)N[C@@H](C)C3)cn2)c1C [Example 94-I, 5-((2R,6S)-4-((2-(4,5-dimethyl-1H-imidazol-1-yl)pyrimidin-5-yl)methyl)-6-methylpiperazin-2-yl)-4-methylisobenzofuran-1(3H)-one] | 14 | 4.3 | 39
COc1nc(-n2cc(CN3C[C@@H](c4ccc5c(c4C)COC5=O)N[C@@H](C)C3)cn2)ncc1C#N [Example 99-I, 4-methoxy-2-(4-(((3S,5R)-3-methyl-5-(4-methyl-1-oxo-1,3-dihydroisobenzofur-an-5-yl)piperazin-1-yl)methyl)-1H-pyrazol-1-yl)pyrimidine-5-carbonitrile] | 29 | 9.6 | 33
Cc1nc(-n2ncc(CN3C[C@@H](c4ccc5c(c4C)COC5=O)N[C@@H](C)C3)n2)ncc1C#N [Example 100-I, 4-methyl-2-(4-(((3S,5R)-3-methyl-5-(4-methyl-1-oxo-1,3-dihydroisobenzofur-an-5-yl)piperazin-1-yl)methyl)-2H-1,2,3-triazol-2-yl)pyrimidine-5-carbonitrile] | 25 | 3.6 | 40
COc1cc(-n2cnc(CN3C[C@@H](c4ccc5c(c4C)COC5=O)N[C@@H](C)C3)c2)ccc1C#N [Example 101-I, 2-methoxy-4-(4-(((3S,5R)-3-methyl-5-(4-methyl-1-oxo-1,3-dihydroisobenzofur-an-5-yl)piperazin-1-yl)methyl)-1H-imidazol-1-yl)benzonitrile] | 34 | 3 | 26
Cc1cc(-n2cc(CN3C[C@@H](c4ccc5c(c4C)COC5=O)N[C@@H](C)C3)cn2)ccn1 [Example 102-I, 4-methyl-5-((2R,6S)-6-methyl-4-((1-(2-methylpyridin-4-yl)-1H-pyrazol-4-yl)methyl)piperazin-2-yl)isobenzofuran-1(3H)-one] | 17 | 5.6 | 48
COc1nc(-n2cnc(CN3C[C@@H](c4ccc5c(c4C)COC5=O)N[C@@H](C)C3)c2)ncc1C#N [Example 103-I, 4-methoxy-2-(4-(((3S,5R)-3-methyl-5-(4-methyl-1-oxo-1,3-dihydroisobenzofur-an-5-yl)piperazin-1-yl)methyl)-1H-imidazol-1-yl)pyrimidine-5-carbonitrile] | 29 | 14 | 25
Cc1cc(-n2cc(CN3C[C@@H](c4ccc5c(c4C)COC5=O)N[C@@H](C)C3)cn2)ncc1C#N [Example 105-I, 4-methyl-6-(4-(((3S,5R)-3-methyl-5-(4-methyl-1-oxo-1,3-dihydroisobenzofur-an-5-yl)piperazin-1-yl)methyl)-1H-pyrazol-1-yl)nicotinonitrile] | 11 | 9.7 | 26
COc1cc(-n2ncc(CN3C[C@@H](c4ccc5c(c4C)COC5=O)N[C@@H](C)C3)n2)ncc1C#N [Example 107-I, 4-methoxy-6-(4-(((3S,5R)-3-methyl-5-(4-methyl-1-oxo-1,3-dihydroisobenzofur-an-5-yl)piperazin-1-yl)methyl)-2H-1,2,3-triazol-2-yl)nicotinonitrile] | 18 | 13 | 26
Cc1nn(-c2ncc(CN3C[C@@H](c4ccc5c(c4C)COC5=O)N[C@@H](C)C3)cn2)cc1C#N [Example 108-I, 3-methyl-1-(5-(((3S,5R)-3-methyl-5-(4-methyl-1-oxo-1,3-dihydroisobenzofur-an-5-yl)piperazin-1-yl)methyl)pyrimidin-2-yl)-1H-pyrazole-4-carbonitrile] | 21 | 8.7 | 30
Cc1c([C@@H]2CN(Cc3cnn(-c4ccc5oc(=O)n(C)c5c4)n3)C[C@H](CO)N2)ccc2c1COC2=O [Example 109-I, 5-(4-(((3R,5R)-3-(hydroxymethyl)-5-(4-methyl-1-oxo-1,3-dihydroisobenzofur-an-5-yl)piperazin-1-yl)methyl)-2H-1,2,3-triazol-2-yl)-3-methylbenzo[d]oxa-zol-2(3H)-one] | 54 | 3.6 | –
COc1cc(-n2cnc(CN3C[C@@H](c4ccc5c(c4C)COC5=O)N[C@@H](C)C3)c2)ccn1 [Example 126-I, 5-((2R,6S)-4-((1-(2-methoxypyridin-4-yl)-1H-imidazol-4-yl)methyl)-6-methylpiperazin-2-yl)-4-methylisobenzofuran-1(3H)-one] | 17 | 7.8 | 34
